Source: publication PMC9146984, “A Novel Proline-Rich Cathelicidin from the Alpaca Vicugna pacos with Potency to Combat Antibiotic-Resistant Bacteria: Mechanism of Action and the Functional Role of the C-Terminal Region” (Membranes, 2022)
Converted amounts (≈) assume the structure as drawn. Like-named read-outs stand apart in the source and are kept apart here. Where a SMILES comes first, the peptide text is derived from it. Bridges are numbered along the chain shown (N, C = ends). [ ]: non-standard residue; d: D form. The star is where a group is joined. X1 = CC[C@H](C)CCCCC(=O)*; Dab = NCC[C@H](N)C(=O)O

Key:
E. coli BW25113 ΔsbmA = format: cell-based, Escherichia coli; conditions: Mueller–Hinton broth, 24 h, 37 °C, median
Description: (§1) The reduction of resazurin to resorufin was measured.

E. coli BW25113 ΔmdtM = format: cell-based, Escherichia coli; conditions: Mueller–Hinton broth, 24 h, 37 °C, median
Description: as §1

E. coli BW25113 ΔompF = format: cell-based, Escherichia coli; conditions: Mueller–Hinton broth, 24 h, 37 °C, median
Description: as §1

E. coli MDR CI 1057 = conditions: Mueller-Hinton broth supplemented with 0.9% NaCl; for Minimum inhibitory concentration E.coli MDR 1057 14 days w/o AMP: after 14 passages without antimicrobial agents; for Minimum inhibitory concentration E.coli MDR 1057 0 days: before passages
Description: (§2) Bacterial test cultures were grown in the Mueller-Hinton broth (MH; Sigma, St. Louis, MO, USA) at 37 °C to mid-log phase and then diluted with the 2× MH medium supplemented with 1.8% NaCl or without salt so that to reach a final cell concentration of 10^6 CFU/mL. 50 µL of the obtained bacterial suspension were added to aliquots of 50 µL of the peptide solutions serially diluted with sterilized 0.1% bovine serum albumin (BSA) in 96-well flat-bottom polystyrene microplates (Eppendorf #0030730011, Hamburg, Germany). […] To verify MIC values, the respiratory activity of the bacteria was determined. Briefly, 20 µL of 0.1 mg/mL resazurin (a redox indicator; Sigma, St. Louis, MO, USA) was added to the wells after 24 h of incubation, and the plate was incubated for an additional two hours. The reduction of resazurin to resorufin was measured. […] The results were expressed as the median values determined based on at least three independent experiments performed in triplicate.
(§3) Resistance induction experiments were performed using the previously described method. Briefly, on day one, the overnight culture of wild-type bacteria was diluted with the 2× MH broth supplemented with 1.8% NaCl to reach a final cell concentration of 10^6 CFU/mL. 50 µL of the obtained bacterial suspension were added to aliquots of 50 µL of the peptide solutions serially diluted with the sterilized 0.1% BSA in 96-well flat-bottom polystyrene microplates. After incubation for 20 ± 2 h at 37 °C and 950 rpm, MICs were determined as described above. For each subsequent daily transfer, 2–4 μL of the inoculum taken from the first well containing a sub-inhibitory drug concentration were diluted with 2 mL of the fresh 2× MH broth supplemented with 1.8% NaCl. […] 14 repeated passages in the presence of antimicrobial agents were made for each bacterial strain during the experiment. Bacteria that grew at the highest concentration of AMPs on the final day were passaged a further 3 times on drug-free agar plates before determining the final MIC value.

[1] = test system: VicBac[1–22]-resistant E. coli MDR 1057 strain; conditions: Mueller-Hinton broth supplemented with 0.9% NaCl; strain selected 14 days with VicBac[1-22]; cross-resistance
Description: as §2, §3

E. coli MDR 1057 = conditions: MH broth with 0.9% NaCl, 14 passages with the same agent (VicBac[1–22]: after 10 passages)
Description: Resistance induction experiments were performed using the previously described method. Briefly, on day one, the overnight culture of wild-type bacteria was diluted with the 2× MH broth supplemented with 1.8% NaCl to reach a final cell concentration of 10^6 CFU/mL. 50 µL of the obtained bacterial suspension were added to aliquots of 50 µL of the peptide solutions serially diluted with the sterilized 0.1% BSA in 96-well flat-bottom polystyrene microplates. After incubation for 20 ± 2 h at 37 °C and 950 rpm, MICs were determined as described above. For each subsequent daily transfer, 2–4 μL of the inoculum taken from the first well containing a sub-inhibitory drug concentration were diluted with 2 mL of the fresh 2× MH broth supplemented with 1.8% NaCl. […] Bacteria that grew at the highest concentration of AMPs on the final day were passaged a further 3 times on drug-free agar plates before determining the final MIC value.

E. coli BW25113 = format: cell-based, Escherichia coli; conditions: Mueller–Hinton broth, 24 h, 37 °C, median
Description: as §1

SMILES	Minimum inhibitory concentration, E. coli strain ΔsbmA (E. coli BW25113 ΔsbmA; 0.9% NaCl: +) [µM]	Minimum inhibitory concentration, E. coli strain ΔsbmA (E. coli BW25113 ΔsbmA; 0.9% NaCl: −) [µM]	Minimum inhibitory concentration, E. coli strain ΔmdtM (E. coli BW25113 ΔmdtM; 0.9% NaCl: +) [µM]	Minimum inhibitory concentration, E. coli strain ΔmdtM (E. coli BW25113 ΔmdtM; 0.9% NaCl: −) [µM]	Minimum inhibitory concentration, E. coli strain ΔompF (E. coli BW25113 ΔompF; 0.9% NaCl: +) [µM]	Minimum inhibitory concentration, E. coli strain ΔompF (E. coli BW25113 ΔompF; 0.9% NaCl: −) [µM]	Minimum inhibitory concentration E.coli MDR 1057 14 days w/o AMP (E. coli MDR CI 1057) [µM]	Minimum inhibitory concentration E.coli MDR 1057 0 days (E. coli MDR CI 1057) [µM]	Minimum inhibitory concentration E.coli MDR 1057 14 days with VicBac [1-22] [1] [µM]	increase in MIC value after serial passage selection (E. coli MDR 1057) [fold]	Minimum inhibitory concentration, E. coli strain BW25113 (E. coli BW25113; 0.9% NaCl: +) [µM]	Minimum inhibitory concentration, E. coli strain BW25113 (E. coli BW25113; 0.9% NaCl: −) [µM]
CC[C@H](C)[C@H](NC(=O)[C@H](CCCNC(=N)N)NC(=O)[C@@H](N)CCCNC(=N)N)C(=O)N[C@@H](CCCNC(=N)N)C(=O)N1CCC[C@H]1C(=O)N[C@@H](CCCNC(=N)N)C(=O)N1CCC[C@H]1C(=O)N1CCC[C@H]1C(=O)N[C@@H](CCCNC(=N)N)C(=O)N[C@@H](CC(C)C)C(=O)N1CCC[C@H]1C(=O)N[C@@H](CCCNC(=N)N)C(=O)N1CCC[C@H]1C(=O)N[C@@H](CCCNC(=N)N)C(=O)N1CCC[C@H]1C(=O)N[C@@H](CCCNC(=N)N)C(=O)N1CCC[C@H]1C(=O)N[C@@H](CC(C)C)C(=O)N1CCC[C@H]1C(=O)N[C@@H](Cc1ccccc1)C(=O)N1CCC[C@H]1C(=O)N[C@@H](CCCNC(=N)N)C(=O)O [Bac7[1-22], reference compound] (H-RRIRPRPPRLPRPRPRPLPFPR-OH)	32 (≈ 89.1 µg/mL)	1 (≈ 2.78 µg/mL)	1 (≈ 2.78 µg/mL)	4 (≈ 11.1 µg/mL)	32 (≈ 89.1 µg/mL)	2 (≈ 5.57 µg/mL)	1 (≈ 2.78 µg/mL)	1 (≈ 2.78 µg/mL)	> 128			
CC[C@H](C)[C@H](NC(=O)[C@H](CCCCN)NC(=O)[C@H](CCC(=O)O)NC(=O)[C@H](CCCCN)NC(=O)[C@H](CO)NC(=O)[C@H](CCCCN)NC(=O)[C@H](CCCNC(=N)N)NC(=O)[C@H](Cc1ccccc1)NC(=O)[C@H](Cc1ccccc1)NC(=O)[C@H](CC(=O)O)NC(=O)CNC(=O)[C@H](CC(C)C)NC(=O)[C@@H](N)CC(C)C)C(=O)NCC(=O)N[C@@H](CCCCN)C(=O)N[C@@H](CCC(=O)O)C(=O)N[C@@H](Cc1ccccc1)C(=O)N[C@@H](CCCCN)C(=O)N[C@@H](CCCNC(=N)N)C(=O)N[C@H](C(=O)N[C@H](C(=O)N[C@@H](CCC(N)=O)C(=O)N[C@@H](CCCNC(=N)N)C(=O)N[C@H](C(=O)N[C@@H](CCCCN)C(=O)N[C@@H](CC(=O)O)C(=O)N[C@@H](Cc1ccccc1)C(=O)N[C@@H](CC(C)C)C(=O)N[C@@H](CCCNC(=N)N)C(=O)N[C@@H](CC(N)=O)C(=O)N[C@@H](CC(C)C)C(=O)N[C@H](C(=O)N1CCC[C@H]1C(=O)N[C@@H](CCCNC(=N)N)C(=O)N[C@H](C(=O)N[C@@H](CCC(=O)O)C(=O)N[C@@H](CO)C(=O)O)[C@@H](C)O)C(C)C)[C@@H](C)CC)C(C)C)[C@@H](C)CC [LL-37, reference compound]	2 (≈ 8.99 µg/mL)	4 (≈ 18 µg/mL)	4 (≈ 18 µg/mL)	4 (≈ 18 µg/mL)	2 (≈ 8.99 µg/mL)	4 (≈ 18 µg/mL)	4 (≈ 18 µg/mL)	4 (≈ 18 µg/mL)	4	2	2 (≈ 8.99 µg/mL)	4 (≈ 18 µg/mL)
CC(C)C[C@H](NC(=O)[C@H](CCCNC(=N)N)NC(=O)[C@@H]1CCCN1C(=O)[C@@H]1CCCN1C(=O)[C@H](Cc1ccccc1)NC(=O)[C@H](Cc1ccccc1)NC(=O)[C@@H]1CCCN1C(=O)[C@@H]1CCCN1C(=O)[C@@H]1CCCN1C(=O)[C@H](CCCNC(=N)N)NC(=O)[C@@H]1CCCN1C(=O)[C@H](CCCNC(=N)N)NC(=O)[C@@H]1CCCN1C(=O)[C@H](CC(C)C)NC(=O)[C@H](Cc1ccc(O)cc1)NC(=O)[C@@H]1CCCN1C(=O)[C@@H]1CCCN1C(=O)[C@H](CCCNC(=N)N)NC(=O)[C@@H]1CCCN1C(=O)[C@H](CCCNC(=N)N)NC(=O)[C@H](CCCNC(=N)N)NC(=O)[C@@H](N)CCCNC(=N)N)C(=O)O [PR-39[1-22]] (H-RRRPRPPYLPRPRPPPFFPPRL-OH; N-terminus and C-terminus assumed)							2 (≈ 5.53 µg/mL)	2 (≈ 5.53 µg/mL)	> 128			
CC[C@H](C)CCCCC(=O)N[C@@H](CCN)C(=O)N[C@H](C(=O)N[C@@H](CCN)C(=O)N[C@H]1CCNC(=O)[C@H]([C@@H](C)O)NC(=O)[C@H](CCN)NC(=O)[C@H](CCN)NC(=O)[C@H](CC(C)C)NC(=O)[C@@H](Cc2ccccc2)NC(=O)[C@H](CCN)NC1=O)[C@@H](C)O [Polymyxin B, polymyxin B] (X1-[Dab]T[Dab][Dab][Dab][dF]L[Dab][Dab]T; lactam 4-C (inferred); N-terminus assumed)							0.125 (≈ 0.15 µg/mL)	0.125 (≈ 0.15 µg/mL)	1	128		
CC[C@H](C)[C@H](NC(=O)[C@H](CCCNC(=N)N)NC(=O)[C@@H](N)CCCNC(=N)N)C(=O)N[C@@H](CCCNC(=N)N)C(=O)N[C@@H](CCCNC(=N)N)C(=O)N1CCC[C@H]1C(=O)N[C@@H](CCCNC(=N)N)C(=O)N[C@@H](CC(C)C)C(=O)N1CCC[C@H]1C(=O)N[C@@H](CCCNC(=N)N)C(=O)N1CCC[C@H]1C(=O)N[C@@H](CCCNC(=N)N)C(=O)N[C@H](C(=O)N1CCC[C@H]1C(=O)O)C(C)C [VicBac[1-14]] (H-RRIRRPRLPRPRVP-OH; N-terminus and C-terminus assumed)	> 64	64 (≈ 117 µg/mL)	> 64	32 (≈ 58.4 µg/mL)	> 64	64 (≈ 117 µg/mL)						
CC[C@H](C)[C@H](NC(=O)[C@H](CCCNC(=N)N)NC(=O)[C@@H](N)CCCNC(=N)N)C(=O)N[C@@H](CCCNC(=N)N)C(=O)N[C@@H](CCCNC(=N)N)C(=O)N1CCC[C@H]1C(=O)N[C@@H](CCCNC(=N)N)C(=O)N[C@@H](CC(C)C)C(=O)N1CCC[C@H]1C(=O)N[C@@H](CCCNC(=N)N)C(=O)N1CCC[C@H]1C(=O)N[C@@H](CCCNC(=N)N)C(=O)N[C@H](C(=O)N1CCC[C@H]1C(=O)N[C@@H](CCCNC(=N)N)C(=O)N1CCC[C@H]1C(=O)N[C@@H](CCCNC(=N)N)C(=O)N[C@H](C(=O)N1CCC[C@H]1C(=O)N1CCC[C@H]1C(=O)O)[C@@H](C)CC)C(C)C [VicBac[1-20]] (H-RRIRRPRLPRPRVPRPRIPP-OH; N-terminus and C-terminus assumed)	> 64	8 (≈ 20.3 µg/mL)	4 (≈ 10.2 µg/mL)	8 (≈ 20.3 µg/mL)	64 (≈ 163 µg/mL)	16 (≈ 40.7 µg/mL)						
